Structures can show the parent of a compound that is named as a salt.

The assay addresses T1, DP receptor (Homo sapiens, UniProt Q13258).
T1 construct: the human cell line LS174T, which expresses the endogenous DP receptor; endogenous in cells; host or cells: LS174T human cell line
T1 sequence (Q13258 1-359): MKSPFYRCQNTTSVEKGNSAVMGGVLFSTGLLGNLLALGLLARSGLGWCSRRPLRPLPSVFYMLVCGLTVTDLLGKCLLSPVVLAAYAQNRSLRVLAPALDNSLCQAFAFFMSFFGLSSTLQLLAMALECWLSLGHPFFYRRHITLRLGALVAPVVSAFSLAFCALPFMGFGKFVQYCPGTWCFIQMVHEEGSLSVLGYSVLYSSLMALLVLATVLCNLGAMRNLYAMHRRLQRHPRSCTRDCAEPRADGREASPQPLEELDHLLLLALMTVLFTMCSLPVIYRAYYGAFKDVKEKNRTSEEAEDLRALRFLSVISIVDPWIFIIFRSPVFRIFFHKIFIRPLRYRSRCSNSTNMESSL
The assay can be described thus: SPA cAMP assay in human LS174 T cells (human DP functional assay). The format is cell-based. The note with it: inhibition of PGD2 (15 nM final) stimulated cAMP, LS174T cells expressing endogenous DP receptor. The method, then: The inhibitory effects of the compounds according to the invention are assessed in a human DP functional assay. A cAMP assay is employed using the human cell line LS174T, which expresses the endogenous DP receptor.
Protocol for SPA cAMP Assay in Human LS174 T Cells
• 1) Add equal volumes of tracer, antiserum and SPA anti-rabbit reagent to a bottle, ensuring that a sufficient volume of this mixture is prepared for the desired number of wells (150 μL/well). • 2) Mix thoroughly. • 3) This immunoreagent solution should be freshly prepared before each assay and not re-used.
Add 50 μL of […] IBMX into 100 mL PBS to make a final concentration of 100 μM and sonicate at 30° C. for 20 minutes.
Before each assay, it is freshly prepared. Add 3 μL of 10 mM stock solution to 20 mL DMSO, mix it thoroughly, and transfer 10 mL to 40 mL PBS.
Compound dilution is carried out in Biomex 2000 (Beckman) using Method 1_cAMP DP 11 points.
5 μL of each compound from the 10 mM stock compound plates is transferred to the wells of a 96-well plate respectively as below.
Fill the plate with 45 μL of DMSO except column 7 is filled with 28 μL DMSO. Pipette column 1 thoroughly, and transfer 12 μL into column 7 parallel. Perform 1:10 serial dilution from column 1 to column 6 and from column 7 to column 11 by transfer 5 μL to 45 μL DMSO to make following concentrations:
Fill a new 96-well plate with 247.5 μL of compound dilution buffer. Transfer 2.5 μL of serially diluted compounds from above plate to the new plate (1:100 dilution) as following:
Cell Growth • 1. […] Remove growth medium from cells. Cells in T165 flask are washed twice with 4 mL Trypsin followed by incubation at 37° C. and 5% CO2 for 3 minutes. • 4. Add 10 mL of medium and pipette thoroughly to separate the cells and count the cells. • 5. […] Assay Procedure Day 1 • Seed 45,000 cells/well in 200 μL medium in 96-well plates. Incubate the cell plate at 37° C., 5% CO2 and 95% humidity overnight. Day 2 • 1. Perform compound dilution. • 2. Prepare assay buffer, lysis buffer 1 & 2, PGD2 and standard. • 3. Aspirate media from the cells and add 100 μL of compound solution using Zymark Sciclone-ALH/FD protocol cAMP DP. • 4. Incubate the cells at 37° C., 5% CO2 and 95% humidity for 15 minutes. • 5. […] Aspirate media from the cells and add 50 μL of lysis buffer 1 using Zymark protocol cAMP DP lysis, and incubate at room temperature with shaking for 30 minutes. • 7. Add 150 μL immunoreagent to all wells (a total volume of 200 μL/well). • 8. Seal the plates and shake for 2 minutes, put into the chamber of the Wallac microtitre plate μ scintillation counter for 16 hours. […] Data Processing Set up standard curve of cAMP versus CPM.
The cAMP concentrations (pmol/mL) of unknown samples are calculated from a standard curve of cAMP versus CPM. % inhibition is calculated using the following formula: […]
For orientation: Changes in cAMP serve as a functional read-out for many G protein-coupled receptors.
What is called IC50 is the concentration that inhibits the measured activity by half. Higher therefore signals weaker potency in that assay. `COc1ccc(CCNc2cc(-c3cccc(S(N)(=O)=O)c3)nc(OC)n2)cc1` [Example 3, 3-{2-Methoxy-6-[2-(4-methoxy-phenyl)-ethylamino]-pyrimidin-4-yl}-benzenesulfonamide] displayed an IC50 of 2.9 nM.

Consider `CCNS(=O)(=O)c1cccc(-c2cc(NCCc3ccc(OC)cc3)nc(OC)n2)c1` [Example 4(b), N-Ethyl-3-{2-methoxy-6-[2-(4-methoxy-phenyl)-ethylamino]-pyrimidin-4-yl}-benzenesulfonamide], for which the IC50 came to 6.6 nM.

In turn, `COc1nc(NCCc2ccc(OC(F)(F)F)cc2)cc(-c2cccc(N)c2)n1` [Example 5, [6-(3-amino-phenyl)-2-methoxy-pyrimidin-4-yl]-[2-(4-trifluoromethoxy-phenyl)-ethyl]-amine] showed an IC50 of 9.6 nM. The IC50 values of the last two compounds are within 1.5-fold of each other.

For the compound `COc1nc(NCCc2ccc(OC(F)(F)F)cc2)cc(-c2cccc(NC(C)=O)c2)n1` [Example 6(a), N-(3-{2-Methoxy-6-[2-(4-trifluoromethoxy-phenyl)-ethylamino]-pyrimidin-4-yl}phenyl)-acetamide], 4.8 nM corresponded to half-maximal inhibition (IC50).

Turning to `COc1nc(NCCc2ccc(F)cc2F)cc(-c2cccc(C(=O)O)c2)n1` [Example 7, 3-{6-[2-(2,4-Difluoro-phenyl)-ethylamino]-2-methoxy-pyrimidin-4-yl}-benzoic acid], the IC50 is 0.8 nM.

The compound `COc1ccc(CCNc2cc(-c3ccc(C(=O)O)s3)nc(OC)n2)cc1` [Example 8(a), 5-{2-Methoxy-6-[2-(4-methoxy-phenyl)-ethylamino]-pyrimidin-4-yl}-thiophene-2-carboxylic acid trifluoroacetate] had an IC50 of 0.33 nM.

In turn, `COc1ccc(CCNc2cc(-c3ccc(C=O)s3)nc(OC)n2)cc1` [Example 8(b), 5-{2-methoxy-6-[2-(4-methoxy-phenyl)-ethylamino]-pyrimidin-4-yl}-thiophene-2-carbaldehyde] gave an IC50 of 0.6 nM.

Turning to `COc1ccc(CCNc2cc(-c3c(C)noc3C)nc(OC)n2)cc1` [Example 8(d), [6-(3,5-Dimethyl-isoxazol-4-yl)-2-methoxy-pyrimidin-4-yl]-[2-(4-methoxy-phenyl)-ethyl]-amine], it took 1.9 nM to reach half-maximal inhibition (IC50). Compared with the last compound, the IC50 is about 3.2-fold higher.

Turning to `COc1ccc(CCNc2cc(-c3ccc(C)s3)nc(OC)n2)cc1` [Example 8(e), [2-Methoxy-6-(5-methyl-thiophen-2-yl)-pyrimidin-4-yl]-[2-(4-methoxy-phenyl)-ethyl]-amine], the IC50 is 8.2 nM.

For the compound `COc1ccc(CCNc2cc(-c3cn[nH]c3)nc(OC)n2)cc1` [Example 8(f), [2-(4-Methoxy-phenyl)-ethyl]-[2-methoxy-6-(1H-pyrazol-4-yl)-pyrimidin-4-yl]-amine], the IC50 worked out at 26 nM. This IC50 is about 3.2-fold higher than that of the compound before.

`COc1ccc(CCNc2cc(-c3cccc4cnccc34)nc(OC)n2)cc1` [Example 8(g), (6-Isoquinolin-5-yl-2-methoxy-pyrimidin-4-yl)-[2-(4-methoxy-phenyl)-ethyl]-amine] yielded an IC50 of 64 nM.

For the compound `COc1ccc(CCNc2cc(-c3ccc(CO)s3)nc(OC)n2)cc1` [Example 9(a), (5-{2-Methoxy-6-[2-(4-methoxy-phenyl)-ethylamino]-pyrimidin-4-yl}-thiophen-2-yl)-methanol], the IC50 stood at 0.55 nM. Against the preceding compound, the IC50 is about 120-fold lower.

With `COc1ccc(CCNc2cc(-c3ccsc3CO)nc(OC)n2)cc1` [Example 9(b), (3-{2-Methoxy-6-[2-(4-methoxy-phenyl)-ethylamino]-pyrimidin-4-yl}-thiophen-2-yl)-methanol], half-maximal inhibition (IC50) was put at 1.7 nM. Against the preceding compound, the IC50 is about 3.1-fold higher.

`COc1nc(NCCc2c(F)cccc2Cl)cc(-c2cccc(CO)c2)n1` [Example 9(d), (3-{6-[2-(2-chloro-6-fluoro-phenyl)-ethylamino]-2-methoxy-pyrimidin-4-yl}-phenyl)-methanol]: the IC50 was determined as 2.4 nM.

For `COc1ccc(CCNc2cc(-c3ccc(N(C)C)cc3)nc(OC)n2)cc1` [Example 10(I)], the IC50 came out at 42 nM.

Compound `COc1ccc(CCNc2cc(-c3ccc4ncccc4c3)nc(OC)n2)cc1` [Example 10(a), [2-(4-Methoxy-phenyl)-ethyl]-(2-methoxy-6-quinolin-6-yl-pyrimidin-4-yl)-amine] showed an IC50 of 0.6 nM.

Compound `COc1ccc(CCNc2cc(-c3cnc4ccccc4c3)nc(OC)n2)cc1` [Example 10(b), [2-(4-Methoxy-phenyl)-ethyl]-(2-methoxy-6-quinolin-3-yl-pyrimidin-4-yl)-amine] registered an IC50 of 0.7 nM.

`COc1ccc(CCNc2cc(-c3ccc4[nH]ccc4c3)nc(OC)n2)cc1` [Example 10(c), [6-(1H-Indol-5-yl)-2-methoxy-pyrimidin-4-yl]-[2-(4-methoxy-phenyl)-ethyl]-amine] showed an IC50 of 0.7 nM.

`COc1ccc(CCNc2cc(-c3ccccc3NS(C)(=O)=O)nc(OC)n2)cc1` [Example 10(d), N-(2-{2-Methoxy-6-[2-(4-methoxy-phenyl)-ethylamino]-pyrimidin-4-yl}-phenyl)-methanesulfonamide] came in with an IC50 of 2 nM.

`COc1ccc(CCNc2cc(-c3ccc(C(N)=O)cc3)nc(OC)n2)cc1` [Example 10(e), 4-{2-Methoxy-6-[2-(4-methoxy-phenyl)-ethylamino]-pyrimidin-4-yl}-benzamide]: the IC50 was 2.3 nM.

In the case of `COc1ccc(CCNc2cc(-c3cc4ccccc4s3)nc(OC)n2)cc1` [Example 10(g), (6-Benzo[b]thiophen-2-yl-2-methoxy-pyrimidin-4-yl)-[2-(4-methoxy-phenyl)-ethyl]-amine], half-maximal inhibition (IC50) was put at 5.1 nM.

In turn, `COc1ccc(CCNc2cc(-c3ccc(C(C)=O)cc3)nc(OC)n2)cc1` [Example 10(h), 1-(4-{2-Methoxy-6-[2-(4-methoxy-phenyl)-ethylamino]-pyrimidin-4-yl}-phenyl)-ethanone] yielded an IC50 of 6.3 nM.

Regarding `COc1ccc(CCNc2cc(-c3cccc(S(C)(=O)=O)c3)nc(OC)n2)cc1` [Example 10(i)], 7.3 nM corresponded to half-maximal inhibition (IC50).

`COc1ccc(CCNc2cc(-c3ccc4c(c3)CCO4)nc(OC)n2)cc1` [Example 10(j), [6-(2,3-Dihydro-benzofuran-5-yl)-2-methoxy-pyrimidin-4-yl]-[2-(4-methoxy-phenyl)-ethyl]-amine] displayed an IC50 of 13 nM.

In the case of `COc1ccc(CCNc2cc(-c3ccc(N4CCOCC4)cc3)nc(OC)n2)cc1` [Example 10(k), [2-Methoxy-6-(4-morpholin-4-yl-phenyl)-pyrimidin-4-yl]-[2-(4-methoxy-phenyl)-ethyl]-amine], the midpoint of inhibition, the IC50, lay at 13 nM. In other words, the double-digit nanomolar range.

In turn, `COc1ccc(CCNc2cc(-c3ccc(-c4cnco4)s3)nc(OC)n2)cc1` [Example 11(a), [2-Methoxy-6-(5-oxazol-5-yl-thiophen-2-yl)-pyrimidin-4-yl]-[2-(4-methoxy-phenyl)-ethyl]-amine] had an IC50 of 2.3 nM.

As for `COc1ccc(CCNc2cc(-c3ccc(C(F)F)s3)nc(OC)n2)cc1` [Example 12, [6-(5-Difluoromethyl-thiophen-2-yl)-2-methoxy-pyrimidin-4-yl]-[2-(4-methoxy-phenyl)-ethyl]-amine], the midpoint of inhibition, the IC50, lay at 11 nM.

Consider `COc1ccc(CCNc2cc(-c3ccc(CN4CCCC4)s3)nc(OC)n2)cc1` [Example 13(a), [2-(4-Methoxy-phenyl)-ethyl]-[2-methoxy-6-(5-pyrrolidin-1-ylmethyl-thiophen-2-yl)-pyrimidin-4-yl]-amine], for which the IC50 was 44 nM.

`COc1ccc(CCNc2cc(-c3cccc(CNCCc4ccc(O)cc4)c3)nc(OC)n2)cc1` [Example 13(c), 4-[2-(3-{2-Methoxy-6-[2-(4-methoxy-phenyl)-ethylamino]-pyrimidin-4-yl}-benzylamino)-ethyl]-phenol hydrochloride] came in with an IC50 of 10 nM.

(Values after patent US7517889B2, “2,6-substituted-4-monosubstitutedamino-pyrimidine as prostaglandin D2 receptor antagonists” (Aventis Pharmaceuticals, Inc., priority 2004, dated 2009).)
